Patent US20100069487A1, “METHOD FOR THE TREATMENT OF PSORIASIS” (REDOX PHARMACEUTICAL CORPORATION, priority 2006, published 2010)

Key:
[1] = test system: type II collagen-induced arthritis; conditions: mice; cited from earlier work
[2] = test system: Zinc-fingers in which the Zinc is tetrahedrally coordinated to cysteines and histidines; conditions: cysteine/histidine-coordinated Zinc; cited from earlier work
[3] = test system: Papillomaviruses; conditions: cited from earlier work
[4] = in vivo
Source text: • 1. It was recently discovered that the transcription factor Zinc-finger protein Gli-similar (Glisl) is found only in psoriatic and not in the epidermis of healthy skin^2. The expression of this protein is restricted to the suprabasal level of the psoriatic epidermis. […] The mode of action of the drug involves displacement Zinc from the protein by the axial ligation of the drug's cobalt (III) complex to the nitrogen of the imidazole ring of the histidine residues. The zinc-finger bearing protein is thus inactivated^4. • We have discovered that Doxovir (CTC-96) will inactivate Glis1 in Psoriatic epidermis and as a result may selectively retard the abnormal proliferation and differentiation of psoriatic keratinocytes. • 2. There have been several reports of the possibility that Human Papilloma Viruses (HPVs) are associated with at least certain manifestations of psoriasis (e.g. ^5,6,7,8). Papillomaviruses proliferate and affect the differentiation and proliferation of keratinocytes. The possible role of the virus (particularly HPV type 5) in the etiology or the maintenance of the abnormal differentiation of psoriatic human skin keratinocytes has thus been postulated. • JunB protein, a component of the ubiquitous transcription factor AP-1, regulates cell proliferation, differentiation, stress responses and cytokine expression in various tissues. […]

Compound: CC(/C=C(/C)[O-])=NCCN=C(C)/C=C(/C)[O-].Cc1ncc[nH]1.Cc1ncc[nH]1.[Br-].[Co+3] [Doxovir]
- therapeutic activity for type II collagen-induced arthritis [1]: proven to have therapeutic activity
- disruption of structure and function of Zinc-fingers [2]: selectively disrupts the structure and function of Zinc-fingers
- anti-papillomavirus activity [3]: distinct anti-papillomavirus activity
- adverse effects on intact skin [4]: no adverse effects on intact skin
